The subject of one data set is green foxtail. The data set is described as follows: Laboratory soil column leaching bioassay (growth inhibition of sensitive test plants at soil depths). To be noted: laboratory and field experiments. It counts as in vivo, green foxtail (setaria); wheat also sown. As for the experimental part: 1. Under laboratory and field conditions, the following bioassay column technique was used to evaluate the leaching of the herbicide using sensitive plants to the given herbicide. Briefly, the experiments have used 100×100×200 mm tin columns filled with soil. The column surface is sprayed with either the commercial formulation of the herbicide or with the organoclay formulated herbicide. The herbicide is added at the same amounts as in the field applications, i.e., 200 g of the active ingredient per 1000 m^2. Then the columns are irrigated with 50 m^3 /[…]. The water is added throughout 5 hours. The columns are left for 24 hr and then sliced along their lengths into two parts (right and left). Two plants, setaria and wheat were sown in each part in two rows and irrigated with water. The height and the weight of the plants 7 days after emergence are used as an indicator of the presence of herbicide at different depths in the soil column.
Alachlor was applied at 2.0 kg/ha followed by irrigation of 500 m^3 /ha. bars indicate standard errors.
Green foxtail growth was used to estimate the presence of matolachlor. Metolachlor formulations were commercial formulation (comm.); metolachlor on clay alone (Mont); metolachlor on clay pre-absorbed with BTMA 0.5 mole/kg clay. The clay based formulations contained 13% metolachlor. […] Bars indicate standard errors.
Green foxtail growth was used to estimate the presence of matolachlor. Metolachlor formulations were commercial formulation (comm.); metolachlor on clay pre-absorbed with PTMA 0.5 mole/kg clay. The clay based formulations contained 13% metolachlor. […] Bars indicate standard errors.

The nature of data set [1]: Adsorption isotherms of herbicide on montmorillonite pre-adsorbed by organic cations. To be noted: for adsorption on montmorillonite pre adsorbed by organic cations: FIGS. 1A and 1B. Format: physicochemical. Here is the method: A suitable concentrated solution of the organic cation is added dropwise to a 0.5 or 1% W/W of clay suspension (e.g. Montmorillonite; Sepiolite; Palygorskite; Pillared clays). After separation of the supernatant, the organoclay complex is dried and ground to less than 50 μm. The herbicide is dissolved in a suitable volatile organic solvent e.g. hexane, dichloro methane, acetone, and mixed with the solid organoclay in weight relations of 5-20 g of herbicide to 95-80 g organoclay. The organic solvent is evaporated under gentle reduced pressure and continuous mixing and the resulting herbicide-organoclay complex is ground to less than 50 μm. The pesticide formulation can be further improved by adding water or another solvent to the dried material; removing the loosely bound pesticide, and drying again.
BTMS 0.8 mole/kg, BTEA 0.8 mole/kg, BTEA 0.5 mole/kg or HDTMA 0.5 mole/kg clay. Bars indicate standard errors.

With `CCCC[N+](CCCC)(CCCC)Cc1ccccc1.[Cl-]` [BTBA, benzyl tributyl ammonium chloride], the “inhibition of movement / leaching of the herbicide in the soil profile” value in the data set with green foxtail is given as “significant inhibition of herbicide leaching has been achieved”.
With `CCOCN(C(=O)CCl)c1c(C)cccc1CC` [acetochlor], in the data set on green foxtail, the “inhibition of movement / leaching of the herbicide in the soil profile” value is reported as “The same trend was also found”. Besides, the “adsorption on montmorillonite pre adsorbed by organic cations” value in data set [1] is “enhanced adsorption”. Further, the “adsorption on montmorillonite preadsorbed by PTMA” value in data set [1] (PTMA 0.5 mmol/g clay) is listed as “Enhanced adsorption”.
`CCc1cccc(CC)c1N(COC)C(=O)CCl` [alachlor]: in data set [1], the “adsorption on montmorillonite pre adsorbed by organic cations” value is given as “enhanced adsorption”.
With `C[N+](C)(C)Cc1ccccc1.[Cl-]` [BTMA, benzyltrimethyl ammonium chloride], the “inhibition of movement / leaching of the herbicide in the soil profile” value in the data set with green foxtail was “significant inhibition of herbicide leaching has been achieved”.
The same measure, in the same setting: then `CC[N+](CC)(CC)Cc1ccccc1.[Br-]` [BTEA, benzyltriethyl ammonium bromide], with “significant inhibition of herbicide leaching has been achieved”; and `CNc1cnn(-c2cccc(C(F)(F)F)c2)c(=O)c1Cl` [norflurazon], with “The same trend was also found”.
